Measurements: patent publication US20060281711A1, “IL-12 modulatory compounds” (Synta Pharmaceuticals Corp., priority 2005, published 2006)

Experiments:
[1] = tested on: Adjuvant arthritis (AA) in female Lewis rats; assay: Treatment of adjuvant arthritis in rats; format: in vivo, rat; details: orally once a day for 7 days (day 7-14)
Procedure: Adjuvant arthritis (AA) was induced in female Lewis rats by the intracutaneous injection (base of the tail) of 0.1 mL of a 10 mg/mL bacterial suspension made from ground, heat-killed Mycobacterium tuberculosis H37Ra suspended in incomplete Freund's adjuvant. Rats were given a test compound orally once a day for 7 days (day 7-14), starting day 7 after mycobacterium induction. The development of polyarthritis was monitored daily by macroscopic inspection and assignment of an arthritis index to each animal, during the critical period (days 10 to 25 post-immunization).
The intensity of polyarthritis was scored according to the following scheme: (a) Grade each paw from 0 to 3 based on erythema, swelling, and deformity of the joints: 0 for no erythema or swelling; 0.5 if swelling is detectable in at least one joint; 1 for mild swelling and erythema; 2 for swelling and erythema of both tarsus and carpus; and 3 for ankylosis and bony deformity. Maximum score for all 4 paws is thus 12. (b) Grade for other parts of the body: for each ear, 0.5 for redness and another 0.5 if knots are present; 1 for connective tissue swelling (saddle nose); and 1 for the presence of knots or kinks in the tail. The highest possible arthritic index is 16.
Experiments with the AA model were repeated four times. […] The arthritis score used in this model is a reflection of the inflammatory state of the structures monitored and the results therefore show the ability of the test compound to provide relief for this aspect of the pathology.

[2] = tested on: IL-12; assay: Human in vitro assay: inhibition of IL-12 production in stimulated human PBMC or THP-1 cells (ELISA); format: cell-based; details: read-out: IC50 Range (in vitro IC50 for IL-12)
Text: The biological activities of a compound of the invention can be evaluated by a number of cell-based assays. One of such assays can be conducted using cells from human peripheral blood mononuclear cells (PBMC) or human monocytic cell line (THP-1). The cells are stimulated with a combination of human interferon-γ (IFNγ) and lipopolysaccharide or a combination of IFNγ and Staphylococcus aureus Cowan I in the presence of a test compound. The level of inhibition of IL-12 production can be measured by determining the amount of p70 by using a sandwich ELISA assay with anti-human IL-12 antibodies. IC50 of the test compound can then be determined. Specifically, PBMC or THP-1 cells are incubated with the test compound. Cell viability was assessed using the bioreduction of MTS [3-(4,5-dimethylthiazol-2-yl)-5-(3-carboxymethoxyphenyl)-2-(4-sulfophenyl)-2H-tetrazolium] (Promega, Madison, Wis.).
8. Reagents. Staphylococcus aureus Cowan I (SAC) was obtained from Calbiochem (La Jolla, Calif.), and lipopolysaccharide (LPS, Serratia marscencens) was obtained from Sigma (St. Louis, Mo.). Human and mouse recombinant IFNγ were purchased from Boehringer Mannheim (Mannheim, Germany) and Pharmingen (San Diego, Calif.), respectively.
9. Human In Vitro Assay. Human PBMC were isolated by centrifugation using Ficoll-Paque (Pharmacia Biotech, Uppsala, Sweden) and prepared in RPMI medium supplemented with 10% fetal calf serum (FCS), 100 U/mL penicillin, and 100 μg/mL streptomycin. PBMC were plated in wells of a 96-well plate at a concentration of 5×10^5 cells/well, and primed by adding IFNγ (30 U/mL) for 22 h and stimulated by adding LPS (1 μg/mL), or by adding IFNγ (100 U/mL) and then stimulated by adding SAC (0.01%). A test pyrimidine compound was dissolved in DMSO, and added to wells of the 96-well plate. The final DMSO concentration was adjusted to 0.25% in all cultures, including the compound-free control. Human THP-1 cells were plated in wells, primed by adding IFNγ (100 U/mL) for 22 h and stimulated by adding SAC (0.025%) in the presence of different concentrations of the pyrimidine compound. Cell-free supernatants were taken 18 h later for measurement of cytokines. Cell viability was assessed using the bioreduction of MTS. Cell survival was estimated by determining the ratio of the absorbance in compound-treated groups versus compound-free control.
10. The supernatant was assayed for the amount of […], IL-12p70, or IL-10 by using a sandwich ELISA with anti-human antibodies, i.e., a Human IL-12 p40 ELISA kit from R&D Systems (Berkeley, Calif.), and a Human IL-12 p70 or IL-10 ELISA kit from Endogen (Cambridge, Mass.). Assays were based on the manufacturer's instructions.
The biological activities of compounds of the invention were tested on human PBMC or THP-1 cells.

SMILES: Cc1ccc2c(c1)/C(=N/Nc1cc(N3CCOCC3)nc(OCCN3CCOCC3)n1)CCO2 [Compound 2, N-(6-Methyl-chroman-4-ylidene)-N′-[6-morpholin-4-yl-2-(2-morpholin-4-yl-ethoxy)-pyrimidin-4-yl]-hydrazine]
- percent reduction in arthritic score ([1]; 20 mg/kg dose): 21% reduction
- percent reduction in arthritic score ([1]; 50 mg/kg dose): 32% reduction
- IC50 [2]: < 1 µM
